Molecular target: Beta-2 adrenergic receptor (Rattus norvegicus) (UniProt P10608)
Test: Binding of [3H]dihydroalprenolol to beta-2 adrenergic receptor of rat cerebellar membranes

Beta-2 adrenergic receptor (Rattus norvegicus), sequence (P10608 whole entry, looked up): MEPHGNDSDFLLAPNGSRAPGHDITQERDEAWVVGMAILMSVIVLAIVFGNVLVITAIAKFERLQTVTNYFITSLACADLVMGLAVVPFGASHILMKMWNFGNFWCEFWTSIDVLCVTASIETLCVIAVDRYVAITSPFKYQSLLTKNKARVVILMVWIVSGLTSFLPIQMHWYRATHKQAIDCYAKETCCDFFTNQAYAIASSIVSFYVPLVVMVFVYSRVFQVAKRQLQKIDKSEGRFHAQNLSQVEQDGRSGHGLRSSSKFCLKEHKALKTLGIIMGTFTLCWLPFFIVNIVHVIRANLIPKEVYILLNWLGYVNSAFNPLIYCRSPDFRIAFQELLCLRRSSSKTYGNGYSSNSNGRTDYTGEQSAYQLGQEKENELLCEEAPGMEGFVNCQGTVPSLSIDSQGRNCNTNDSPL

Compound	Ki [µM]
NCCc1ccc(O)c(O)c1	50
CNCC(O)c1cc(O)c(O)cc1F (stereo not drawn) [(+/-)4-Fluoro-5-(1-hydroxy-2-methylamino-ethyl)-benzene-1,2-diol]	50
CNC[C@H](O)c1cc(O)c(O)cc1F [(R)4-Fluoro-5-(1-hydroxy-2-methylamino-ethyl)-benzene-1,2-diol]	38
